Results from patent US8192962B2, “Processes for detecting toxic substances” (Daikin Industries, Ltd., priority 2001, dated 2012).

Tested on: Metabolism protein genes
Experiment: DNA chip mRNA expression in yeast, metabolism protein genes (Table 7)
Type: cell-based, Saccharomyces cerevisiae S288C
How it was run: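 Ratios compare mRNA levels in stressed and control S. cerevisiae. Each toxicant was applied for two hours to log-phase cultures at 25° C. at a sub-lethal, growth-inhibiting level; fluorescent cDNA (Cy3- or Cy5-dUTP) was hybridized to a genome-wide yeast chip for over 12 h at 65° C.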

N#Cc1c(Cl)c(Cl)c(Cl)c(C#N)c1Cl [(9), 2,4,5,6-tetrachloro-1,3-benzenedicarbonitrile]
level of expressed mRNA in the presence/in the absence of chemical substance (yeast gene YJL121C): 0.1
The level of expressed mRNA in the presence of chemical substance/The level of expressed mRNA in the absence of chemical substance (yeast gene YJL172W): 0.7
The level of expressed mRNA in the presence of chemical substance/The level of expressed mRNA in the absence of chemical substance (yeast gene YJL219W): 4.0
The level of expressed mRNA in the presence of chemical substance/The level of expressed mRNA in the absence of chemical substance (yeast gene YJL221C): 2.7
level of expressed mRNA in the presence/in the absence of chemical substance (yeast gene YJR077C): 0.4
The level of expressed mRNA in the presence of chemical substance/The level of expressed mRNA in the absence of chemical substance (yeast gene YJR137C): 9.0
level of expressed mRNA in the presence/in the absence of chemical substance (yeast gene YJR143C): 0.1
The level of expressed mRNA in the presence of chemical substance/The level of expressed mRNA in the absence of chemical substance (yeast gene YJR148W): 0.7
The level of expressed mRNA in the presence of chemical substance/The level of expressed mRNA in the absence of chemical substance (yeast gene YJR155W): 38.2
The level of expressed mRNA in the presence of chemical substance/The level of expressed mRNA in the absence of chemical substance (yeast gene YKL035W): 0.8
level of expressed mRNA in the presence/in the absence of chemical substance (yeast gene YKL060C): 0.3
The level of expressed mRNA in the presence of chemical substance/The level of expressed mRNA in the absence of chemical substance (yeast gene YKL091C): 2.3
The level of expressed mRNA in the presence of chemical substance/The level of expressed mRNA in the absence of chemical substance (yeast gene YKL104C): 1.4
level of expressed mRNA in the presence/in the absence of chemical substance (yeast gene YKL148C): 1.7
The level of expressed mRNA in the presence of chemical substance/The level of expressed mRNA in the absence of chemical substance (yeast gene YKL152C): 0.9
level of expressed mRNA in the presence/in the absence of chemical substance (yeast gene YKL157W): 1.7
The level of expressed mRNA in the presence of chemical substance/The level of expressed mRNA in the absence of chemical substance (yeast gene YKL213C): 4.8
The level of expressed mRNA in the presence of chemical substance/The level of expressed mRNA in the absence of chemical substance (yeast gene YKL215C): 1.3
level of expressed mRNA in the presence/in the absence of chemical substance (yeast gene YKR034W): 0.5
The level of expressed mRNA in the presence of chemical substance/The level of expressed mRNA in the absence of chemical substance (yeast gene YKR039W): 1.9
The level of expressed mRNA in the presence of chemical substance/The level of expressed mRNA in the absence of chemical substance (yeast gene YLL058W): 3.5
level of expressed mRNA in the presence/in the absence of chemical substance (yeast gene YLR006C): 1.1
level of expressed mRNA in the presence/in the absence of chemical substance (yeast gene YLR058C): 0.2
level of expressed mRNA in the presence/in the absence of chemical substance (yeast gene YLR081W): 0.1
level of expressed mRNA in the presence/in the absence of chemical substance (yeast gene YLR089C): 0.5
The level of expressed mRNA in the presence of chemical substance/The level of expressed mRNA in the absence of chemical substance (yeast gene YLR142W): 3.1
The level of expressed mRNA in the presence of chemical substance/The level of expressed mRNA in the absence of chemical substance (yeast gene YLR164W): 5.3
The level of expressed mRNA in the presence of chemical substance/The level of expressed mRNA in the absence of chemical substance (yeast gene YLR180W): 0.8
The level of expressed mRNA in the presence of chemical substance/The level of expressed mRNA in the absence of chemical substance (yeast gene YLR260W): 2.6
The level of expressed mRNA in the presence of chemical substance/The level of expressed mRNA in the absence of chemical substance (yeast gene YLR273C): 2.8
level of expressed mRNA in the presence/in the absence of chemical substance (yeast gene YLR284C): 0.9
The level of expressed mRNA in the presence of chemical substance/The level of expressed mRNA in the absence of chemical substance (yeast gene YLR299W): 4.9
The level of expressed mRNA in the presence of chemical substance/The level of expressed mRNA in the absence of chemical substance (yeast gene YLR300W): 0.0
level of expressed mRNA in the presence/in the absence of chemical substance (yeast gene YLR304C): 0.1
The level of expressed mRNA in the presence of chemical substance/The level of expressed mRNA in the absence of chemical substance (yeast gene YLR307W): 0.6
The level of expressed mRNA in the presence of chemical substance/The level of expressed mRNA in the absence of chemical substance (yeast gene YLR348C): 2.1
level of expressed mRNA in the presence/in the absence of chemical substance (yeast gene YLR354C): 0.4
level of expressed mRNA in the presence/in the absence of chemical substance (yeast gene YML022W): 0.3
The level of expressed mRNA in the presence of chemical substance/The level of expressed mRNA in the absence of chemical substance (yeast gene YML042W): 3.8
The level of expressed mRNA in the presence of chemical substance/The level of expressed mRNA in the absence of chemical substance (yeast gene YML054C): 4.1
The level of expressed mRNA in the presence of chemical substance/The level of expressed mRNA in the absence of chemical substance (yeast gene YML070W): 4.5
The level of expressed mRNA in the presence of chemical substance/The level of expressed mRNA in the absence of chemical substance (yeast gene YML100W): 1.7
The level of expressed mRNA in the presence of chemical substance/The level of expressed mRNA in the absence of chemical substance (yeast gene YML110C): 2.7
The level of expressed mRNA in the presence of chemical substance/The level of expressed mRNA in the absence of chemical substance (yeast gene YMR008C): 0.3
level of expressed mRNA in the presence/in the absence of chemical substance (yeast gene YMR015C): 0.1
The level of expressed mRNA in the presence of chemical substance/The level of expressed mRNA in the absence of chemical substance (yeast gene YMR020W): 2.3
level of expressed mRNA in the presence/in the absence of chemical substance (yeast gene YMR083W): 0.4
The level of expressed mRNA in the presence of chemical substance/The level of expressed mRNA in the absence of chemical substance (yeast gene YMR105C): 0.6
The level of expressed mRNA in the presence of chemical substance/The level of expressed mRNA in the absence of chemical substance (yeast gene YMR189W): 0.7
level of expressed mRNA in the presence/in the absence of chemical substance (yeast gene YMR205C): 0.3
level of expressed mRNA in the presence/in the absence of chemical substance (yeast gene YMR261C): 1.6
The level of expressed mRNA in the presence of chemical substance/The level of expressed mRNA in the absence of chemical substance (yeast gene YMR271C): 8.0
The level of expressed mRNA in the presence of chemical substance/The level of expressed mRNA in the absence of chemical substance (yeast gene YMR296C): 0.4
level of expressed mRNA in the presence/in the absence of chemical substance (yeast gene YMR323W): 0.5
The level of expressed mRNA in the presence of chemical substance/The level of expressed mRNA in the absence of chemical substance (yeast gene YNL012W): 3.3
level of expressed mRNA in the presence/in the absence of chemical substance (yeast gene YNL025C): 1.1
The level of expressed mRNA in the presence of chemical substance/The level of expressed mRNA in the absence of chemical substance (yeast gene YNL037C): 0.6
The level of expressed mRNA in the presence of chemical substance/The level of expressed mRNA in the absence of chemical substance (yeast gene YNL045W): 1.3
The level of expressed mRNA in the presence of chemical substance/The level of expressed mRNA in the absence of chemical substance (yeast gene YNL104C): 1.1
The level of expressed mRNA in the presence of chemical substance/The level of expressed mRNA in the absence of chemical substance (yeast gene YNL106C): 0.7
The level of expressed mRNA in the presence of chemical substance/The level of expressed mRNA in the absence of chemical substance (yeast gene YNL169C): 1.1
The level of expressed mRNA in the presence of chemical substance/The level of expressed mRNA in the absence of chemical substance (yeast gene YNL231C): 2.2
The level of expressed mRNA in the presence of chemical substance/The level of expressed mRNA in the absence of chemical substance (yeast gene YNL264C): 3.3
The level of expressed mRNA in the presence of chemical substance/The level of expressed mRNA in the absence of chemical substance (yeast gene YNL322C): 0.7
The level of expressed mRNA in the presence of chemical substance/The level of expressed mRNA in the absence of chemical substance (yeast gene YNL331C): 42.6
The level of expressed mRNA in the presence of chemical substance/The level of expressed mRNA in the absence of chemical substance (yeast gene YNL332W): 3.3
The level of expressed mRNA in the presence of chemical substance/The level of expressed mRNA in the absence of chemical substance (yeast gene YNR002C): 3.9
The level of expressed mRNA in the presence of chemical substance/The level of expressed mRNA in the absence of chemical substance (yeast gene YNR019W): 1.8
The level of expressed mRNA in the presence of chemical substance/The level of expressed mRNA in the absence of chemical substance (yeast gene YNR033W): 3.6
The level of expressed mRNA in the presence of chemical substance/The level of expressed mRNA in the absence of chemical substance (yeast gene YNR059W): 1.8
The level of expressed mRNA in the presence of chemical substance/The level of expressed mRNA in the absence of chemical substance (yeast gene YNR071C): 3.1
The level of expressed mRNA in the presence of chemical substance/The level of expressed mRNA in the absence of chemical substance (yeast gene YOL058W): 0.1
level of expressed mRNA in the presence/in the absence of chemical substance (yeast gene YOL086C): 0.1
The level of expressed mRNA in the presence of chemical substance/The level of expressed mRNA in the absence of chemical substance (yeast gene YOL126C): 0.8
The level of expressed mRNA in the presence of chemical substance/The level of expressed mRNA in the absence of chemical substance (yeast gene YOL143C): 0.8
The level of expressed mRNA in the presence of chemical substance/The level of expressed mRNA in the absence of chemical substance (yeast gene YOL153C): 2.5
level of expressed mRNA in the presence/in the absence of chemical substance (yeast gene YOL156W): 2.3
The level of expressed mRNA in the presence of chemical substance/The level of expressed mRNA in the absence of chemical substance (yeast gene YOL165C): 46.9
level of expressed mRNA in the presence/in the absence of chemical substance (yeast gene YOR002W): 0.8
level of expressed mRNA in the presence/in the absence of chemical substance (yeast gene YOR085W): 0.5
The level of expressed mRNA in the presence of chemical substance/The level of expressed mRNA in the absence of chemical substance (yeast gene YOR099W): 0.6
level of expressed mRNA in the presence/in the absence of chemical substance (yeast gene YOR108W): 0.4
level of expressed mRNA in the presence/in the absence of chemical substance (yeast gene YOR128C): 0.3
The level of expressed mRNA in the presence of chemical substance/The level of expressed mRNA in the absence of chemical substance (yeast gene YOR130C): 2.0
The level of expressed mRNA in the presence of chemical substance/The level of expressed mRNA in the absence of chemical substance (yeast gene YOR136W): 0.3
level of expressed mRNA in the presence/in the absence of chemical substance (yeast gene YOR142W): 1.1
level of expressed mRNA in the presence/in the absence of chemical substance (yeast gene YOR176W): 1.0
level of expressed mRNA in the presence/in the absence of chemical substance (yeast gene YOR178C): 0.2
The level of expressed mRNA in the presence of chemical substance/The level of expressed mRNA in the absence of chemical substance (yeast gene YOR226C): 1.3
The level of expressed mRNA in the presence of chemical substance/The level of expressed mRNA in the absence of chemical substance (yeast gene YOR336W): 1.7
The level of expressed mRNA in the presence of chemical substance/The level of expressed mRNA in the absence of chemical substance (yeast gene YOR347C): 0.5
The level of expressed mRNA in the presence of chemical substance/The level of expressed mRNA in the absence of chemical substance (yeast gene YOR377W): 3.8
The level of expressed mRNA in the presence of chemical substance/The level of expressed mRNA in the absence of chemical substance (yeast gene YPL017C): 3.0
level of expressed mRNA in the presence/in the absence of chemical substance (yeast gene YPL028W): 1.2
level of expressed mRNA in the presence/in the absence of chemical substance (yeast gene YPL057C): 0.4
level of expressed mRNA in the presence/in the absence of chemical substance (yeast gene YPL135W): 0.5
The level of expressed mRNA in the presence of chemical substance/The level of expressed mRNA in the absence of chemical substance (yeast gene YPR026W): 0.9
level of expressed mRNA in the presence/in the absence of chemical substance (yeast gene YPR113W): 0.4
The level of expressed mRNA in the presence of chemical substance/The level of expressed mRNA in the absence of chemical substance (yeast gene YPR167C): 76.6
level of expressed mRNA in the presence/in the absence of chemical substance (yeast gene YPR183W): 0.9
